Holding throughout (format): biochemical
For one assay, the target named is PI3Ka (Homo sapiens (Human), UniProt P42336). As to the kind of experiment: Z'-LYTE / Adapta kinase assay, PI3Ka. The settings on record: read-out: PI3Ka % Inh. @ 100 nM. The text has this:
(§1) The Z′-LYTE® biochemical assay employs a fluorescence-based, coupled-enzyme format and is based on the differential sensitivity of phosphorylated and non-phosphorylated peptides to proteolytic cleavage (FIG. 6). The peptide substrate is labeled with two fluorophores one at each end—that make up a FRET pair. In the primary reaction, the kinase transfers the gamma-phosphate of ATP to a single tyrosine, serine or threonine residue in a synthetic FRET-peptide. In the secondary reaction, a site-specific protease recognizes and cleaves non-phosphorylated FRET-peptides. Phosphorylation of FRET-peptides suppresses cleavage by the Development Reagent. Cleavage disrupts FRET between the donor (i.e., coumarin) and acceptor (i.e., fluorescein) fluorophores on the FRET-peptide, whereas uncleaved, phosphorylated FRET-peptides maintain FRET. A ratiometric method, which calculates the ratio (the Emission Ratio) of donor emission to acceptor emission after excitation of the donor fluorophore at 400 nm, is used to quantitate reaction progress.
(§2) A significant benefit of this ratiometric method for quantitating reaction progress is the elimination of well-to-well variations in FRET-peptide concentration and signal intensities. As a result, the assay yields very high Z′-factor values (>0.7) at a low percent phosphorylation.
(§3) Both cleaved and uncleaved FRET-peptides contribute to the fluorescence signals and therefore to the Emission Ratio. The extent of phosphorylation of the FRET-peptide can be calculated from the Emission Ratio.
(§4) Enzyme: The ADAPTA universal kinase assay is a homogenous, fluorescent based immunoassay for the detection of ADP. In contrast to ATP depletion assays, the ADAPTA assay is extremely sensitive to ADP formation such that a majority of the signal change occurs in the first 10-20% conversion of ATP to ADP. This makes the ADAPTA universal kinase assay ideally suited for use with low activity kinases.
(§5) The principle of the ADAPTA universal kinase assay is outlined below. The assay itself can be divided into two phases: a kinase reaction phase, and an ADP detection phase. In the kinase reaction phase, all components required for the kinase reaction are added to the well, and the reaction is allowed to incubate for 60 minutes.
(§6) Z′-LYTE® Assay Conditions:
(§7) Test Compounds: The Test Compounds are screened in 1% DMSO (final) in the well. For 10 point titrations, 3-fold serial dilutions are conducted from the starting concentration.
(§8) Peptide/Kinase Mixtures: All Peptide/Kinase Mixtures are diluted to a 2× working concentration in the appropriate Kinase Buffer.
(§9) ATP Solution: All ATP Solutions are diluted to a 4× working concentration in Kinase Buffer (50 mM HEPES pH 7.5, 0.01% BRIJ-35, 10 mM MgCl2, 1 mM EGTA). ATP Km apparent is previously determined using a Z′-LYTE® assay.
(§10) Development Reagent Solution: The Development Reagent is diluted in Development Buffer. […]
(§11) 2.5 μL—4× Test Compound or 100 nL 100× plus 2.4 μL kinase buffer. 2. 5 μL—2× Peptide/Kinase Mixture. 3. 2.5 μL—4× ATP Solution. 4. 30-second plate shake. 5. 60-minute Kinase Reaction incubation at room temperature. 6. 5 μL—Development Reagent Solution. 7. 30-second plate shake. 8. 60-minute Development Reaction incubation at room temperature. 9.

The target in the next assay is EGFR (Homo sapiens (Human), UniProt P00533). As to the kind of experiment: Z'-LYTE / Adapta kinase assay, EGFR. The settings on record: read-out: EGFR % Inh. @ 100 nM.
EGFR, sequence (P00533 25-1210): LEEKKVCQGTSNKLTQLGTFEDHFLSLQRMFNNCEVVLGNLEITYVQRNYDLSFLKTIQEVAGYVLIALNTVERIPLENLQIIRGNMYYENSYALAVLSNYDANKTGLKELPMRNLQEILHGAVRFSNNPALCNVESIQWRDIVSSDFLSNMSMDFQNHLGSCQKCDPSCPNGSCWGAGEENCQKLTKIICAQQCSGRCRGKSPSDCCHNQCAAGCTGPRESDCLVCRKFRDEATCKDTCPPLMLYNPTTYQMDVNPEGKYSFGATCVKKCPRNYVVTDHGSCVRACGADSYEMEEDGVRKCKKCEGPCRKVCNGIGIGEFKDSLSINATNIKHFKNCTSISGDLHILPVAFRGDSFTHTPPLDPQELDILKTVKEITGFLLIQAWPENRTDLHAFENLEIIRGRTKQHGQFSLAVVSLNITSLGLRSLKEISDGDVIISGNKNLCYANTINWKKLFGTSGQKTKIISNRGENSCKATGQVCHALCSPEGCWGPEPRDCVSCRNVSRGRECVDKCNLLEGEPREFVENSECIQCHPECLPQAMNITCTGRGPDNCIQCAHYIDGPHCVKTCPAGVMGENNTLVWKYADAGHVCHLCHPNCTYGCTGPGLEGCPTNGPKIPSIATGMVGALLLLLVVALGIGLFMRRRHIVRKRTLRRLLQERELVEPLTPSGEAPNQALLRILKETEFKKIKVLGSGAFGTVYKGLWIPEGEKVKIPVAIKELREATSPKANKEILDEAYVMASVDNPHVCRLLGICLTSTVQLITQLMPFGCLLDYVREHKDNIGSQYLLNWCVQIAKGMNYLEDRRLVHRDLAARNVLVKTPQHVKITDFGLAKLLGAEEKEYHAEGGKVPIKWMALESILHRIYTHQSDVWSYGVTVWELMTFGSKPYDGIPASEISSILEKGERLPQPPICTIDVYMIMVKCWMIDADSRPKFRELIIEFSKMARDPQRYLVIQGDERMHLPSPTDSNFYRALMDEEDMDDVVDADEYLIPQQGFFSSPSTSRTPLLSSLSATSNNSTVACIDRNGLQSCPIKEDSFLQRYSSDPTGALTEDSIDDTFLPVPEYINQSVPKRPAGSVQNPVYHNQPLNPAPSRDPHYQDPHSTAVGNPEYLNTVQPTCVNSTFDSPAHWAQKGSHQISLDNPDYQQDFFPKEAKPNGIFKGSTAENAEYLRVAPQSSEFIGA
Description: as §1, §2, §3, §4, §5, §6, §7, §8, §9, §10, §11

Another assay concerns the target DNA-PK (Homo sapiens (Human), UniProt P78527). Description: Z'-LYTE / Adapta kinase assay, DNA-PK. The settings on record: read-out: DNA-PK % Inh. @ 100 nM.
Description: as §1, §2, §3, §4, §5, §6, §7, §8, §9, §10, §11

PI3Ka, sequence (P42336 whole entry): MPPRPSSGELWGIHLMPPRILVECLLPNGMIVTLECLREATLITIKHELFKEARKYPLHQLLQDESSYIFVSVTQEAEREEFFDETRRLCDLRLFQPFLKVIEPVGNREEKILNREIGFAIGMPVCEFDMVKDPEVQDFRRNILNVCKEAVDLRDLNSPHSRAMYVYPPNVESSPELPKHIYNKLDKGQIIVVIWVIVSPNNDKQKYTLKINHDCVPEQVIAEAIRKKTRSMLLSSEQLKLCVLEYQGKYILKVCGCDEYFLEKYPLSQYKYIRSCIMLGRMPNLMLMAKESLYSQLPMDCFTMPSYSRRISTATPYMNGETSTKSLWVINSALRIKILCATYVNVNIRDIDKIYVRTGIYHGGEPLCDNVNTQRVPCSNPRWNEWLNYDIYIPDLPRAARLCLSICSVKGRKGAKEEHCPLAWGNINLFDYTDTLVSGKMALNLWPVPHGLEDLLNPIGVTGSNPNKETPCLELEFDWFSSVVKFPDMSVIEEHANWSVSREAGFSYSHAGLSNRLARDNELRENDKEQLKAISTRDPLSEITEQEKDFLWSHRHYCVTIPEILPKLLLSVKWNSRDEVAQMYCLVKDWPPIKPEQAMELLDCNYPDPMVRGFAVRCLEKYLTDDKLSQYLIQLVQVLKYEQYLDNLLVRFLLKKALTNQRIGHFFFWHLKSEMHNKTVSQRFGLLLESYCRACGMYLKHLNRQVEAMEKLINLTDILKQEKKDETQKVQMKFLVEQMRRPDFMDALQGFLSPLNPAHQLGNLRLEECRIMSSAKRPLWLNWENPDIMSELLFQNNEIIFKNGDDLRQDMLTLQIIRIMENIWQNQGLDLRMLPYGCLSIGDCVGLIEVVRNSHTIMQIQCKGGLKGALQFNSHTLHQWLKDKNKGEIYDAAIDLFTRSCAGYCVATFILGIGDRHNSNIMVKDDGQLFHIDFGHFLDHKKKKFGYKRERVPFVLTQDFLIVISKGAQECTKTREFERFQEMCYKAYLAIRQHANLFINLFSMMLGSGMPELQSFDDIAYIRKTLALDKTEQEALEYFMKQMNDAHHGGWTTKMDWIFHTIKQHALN
PI3Ka, sequence (P27986 whole entry partner): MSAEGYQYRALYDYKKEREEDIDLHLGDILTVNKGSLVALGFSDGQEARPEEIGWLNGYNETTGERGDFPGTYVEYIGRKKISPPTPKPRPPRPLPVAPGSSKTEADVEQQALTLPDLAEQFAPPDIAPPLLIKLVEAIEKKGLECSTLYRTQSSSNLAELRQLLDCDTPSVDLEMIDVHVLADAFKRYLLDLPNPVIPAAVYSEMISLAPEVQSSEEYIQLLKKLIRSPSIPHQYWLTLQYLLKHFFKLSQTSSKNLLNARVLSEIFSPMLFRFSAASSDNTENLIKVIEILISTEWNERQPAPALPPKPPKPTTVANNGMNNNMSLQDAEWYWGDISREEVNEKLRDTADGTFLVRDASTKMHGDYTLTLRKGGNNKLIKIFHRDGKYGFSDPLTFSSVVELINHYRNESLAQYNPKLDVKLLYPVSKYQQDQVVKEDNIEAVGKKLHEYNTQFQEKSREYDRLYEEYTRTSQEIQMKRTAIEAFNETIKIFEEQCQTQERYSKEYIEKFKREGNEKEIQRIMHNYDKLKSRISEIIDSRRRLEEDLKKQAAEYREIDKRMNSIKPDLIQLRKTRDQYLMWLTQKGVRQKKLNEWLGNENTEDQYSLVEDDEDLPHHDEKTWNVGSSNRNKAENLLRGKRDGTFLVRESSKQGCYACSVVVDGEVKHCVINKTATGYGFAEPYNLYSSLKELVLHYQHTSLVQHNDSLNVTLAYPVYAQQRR

On to `CC(Nc1c(C#N)cnc2ccc(-c3ccc4oc(N)nc4c3)cc12)c1ccccc1` (stereo not drawn) [Compound 87, 6-(2-amino-1,3-benzoxazol-5-yl)-4-(1-phenylethylamino) quinoline-3-carbonitrile], for which the inhibition at 0.1 µM at PI3Ka was 10 to 80%; on EGFR it was 80 to 90%; on DNA-PK it was below 10%.
Taken in the same sequence, the figures for `CC(Nc1c(C#N)cnc2ccc(-c3cnc4ccccc4c3)cc12)c1ccccc1` (stereo not drawn) [Compound 122, 4-(1-phenylethylamino)-6-(3-quinolyl)quinoline-3-carbonitrile] were below 10%, 10 to 80% and below 10%.
Take `CC(Nc1c(C#N)cnc2ccc(-c3cccnc3)cc12)c1ccccc1` (stereo not drawn) [Compound 123, 4-(1-phenylethylamino)-6-(3-pyridyl) quinoline-3-carbonitrile]: the inhibition at 0.1 µM on PI3Ka was below 10%; at EGFR, above 90%; on DNA-PK, 10 to 80%.
For `CC(Nc1c(C#N)cnc2ccc(-c3n[nH]c4ccncc34)cc12)c1ccccc1` (stereo not drawn) [Compound 124, 4-(1-phenylethylamino)-6-(1H-pyrazolo [4,3-c]pyridin-3-yl) quinoline-3-carbonitrile] the same measures were below 10%, above 90% and below 10%.
Turning to `CC(Nc1c(C#N)cnc2ccc(-c3n[nH]c4cnccc34)cc12)c1ccccc1` (stereo not drawn) [Compound 125, 4-(1-phenylethylamino)-6-(1H-pyrazolo [3,4-c]pyridin-3-yl)quinoline-3-carbonitrile], the inhibition at 0.1 µM at PI3Ka was below 10%; at EGFR it was above 90%; at DNA-PK it was 10 to 80%.
Turning to `COc1ncc(-c2ccc3ncc(C#N)c(NC(C)c4ccccc4)c3c2)cc1C#N` (stereo not drawn) [Compound 126, 6-(5-cyano-6-methoxy-3-pyridyl)-4-(1-phenylethylamino) quinoline-3-carbonitrile], the inhibition at 0.1 µM was 10 to 80% at PI3Ka, 10 to 80% on EGFR and below 10% on DNA-PK.
For `CC(Nc1c(C#N)cnc2ccc(-c3cccc(-c4n[nH]c(=O)o4)c3)cc12)c1ccccc1` (stereo not drawn) [Compound 127, 6-[3-(2-oxo-3H-1,3,4-oxadiazol-5-yl)phenyl]-4-(1-phenylethylamino) quinoline-3-carbonitrile], the inhibition at 0.1 µM was below 10% on PI3Ka, 80 to 90% at EGFR and 10 to 80% at DNA-PK.
For `CC(Nc1c(C#N)cnc2ccc(-c3cccc(-c4nnc[nH]4)c3)cc12)c1ccccc1` (stereo not drawn) [Compound 128, 4-(1-phenylethylamino)-6-[3-(4H-1,2,4-triazol-3-yl)phenyl]quinoline-3-carbonitrile] the same measures were below 10%, 80 to 90% and below 10%.
For `CC(Nc1c(C#N)cnc2ccc(-c3cc(F)c(O)c(F)c3)cc12)c1ccccc1` (stereo not drawn) [Compound 130, 6-(3,5-difluoro-4-hydroxy-phenyl)-4-(1-phenylethylamino) quinoline-3-carbonitrile] the same measures were below 10%, 10 to 80% and below 10%.
For the molecule `CC(Nc1c(C#N)cnc2ccc(-c3cc(Cl)c(O)c(Cl)c3)cc12)c1ccccc1` (stereo not drawn) [Compound 131, 6-(3,5-dichloro-4-hydroxy-phenyl)-4-(1-phenylethylamino) quinoline-3-carbonitrile], the results for the inhibition at 0.1 µM on PI3Ka, at EGFR and on DNA-PK were below 10%, 10 to 80% and below 10%, respectively.
As for `COc1ncc(-c2ccc3ncnc(N[C@H](C)c4ccccc4)c3c2)cc1C#N` [Compound 132, 2-methoxy-5-[4-[[(1R)-1-phenylethyl]amino]quinazolin-6-yl]pyridine-3-carbonitrile], the inhibition at 0.1 µM at PI3Ka was below 10%; at EGFR, 10 to 80%; on DNA-PK, below 10%.
As to `C[C@@H](Nc1ncnc2ccc(-c3cncc(C(=O)NC#N)c3)cc12)c1ccccc1` [Compound 133, (R)-N-cyano-5-(4-((1-phenylethyl)amino)quinazolin-6-yl)nicotinamide], the inhibition at 0.1 µM on PI3Ka, on EGFR and on DNA-PK was below 10% in each case.
With `C[C@@H](Nc1ncnc2ccc(-c3cncc(C(=O)N(C)O)c3)cc12)c1ccccc1` [Compound 134, (R)-N-hydroxy-N-methyl-5-(4-((1-phenylethyl)amino)quinazolin-6-yl)nicotinamide], the inhibition at 0.1 µM at PI3Ka is below 10%; at EGFR, above 90%; at DNA-PK, below 10%.
`COC(=O)c1cncc(-c2ccc3ncnc(N[C@H](C)c4ccccc4)c3c2)c1` [Compound 135, methyl 5-[4-[[(1R)-1-phenylethyl]amino]quinazolin-6-yl]pyridine-3-carboxylate]: the inhibition at 0.1 µM on PI3Ka is below 10%; on EGFR, above 90%; at DNA-PK, below 10%.
For `C[C@@H](Nc1ncnc2ccc(-c3ccc4c(c3)C(=O)OC4)cc12)c1ccccc1` [Compound 136, 6-[4-[[(1R)-1-phenylethyl]amino]quinazolin-6-yl]-3H-isobenzofuran-1-one], the inhibition at 0.1 µM at PI3Ka was below 10%; at EGFR it was above 90%; on DNA-PK, below 10%.
Consider `C[C@@H](Nc1ncnc2ccc(-c3cccc(-c4nnc[nH]4)c3)cc12)c1ccccc1` [Compound 137, N-[(1R)-1-phenylethyl]-6-[3-(4H-1,2,4-triazol-3-yl)phenyl]quinazolin-4-amine], for which the values for the inhibition at 0.1 µM on PI3Ka, at EGFR and on DNA-PK were 10 to 80%, above 90% and below 10%, respectively.
Taken in the same sequence, the figures for `C[C@@H](Nc1ncnc2ccc(-c3cncc(-c4nnc[nH]4)c3)cc12)c1ccccc1` [Compound 138, (R)-6-(5-(4H-1,2,4-triazol-3-yl)pyridin-3-yl)-N-(1-phenylethyl)quinazolin-4-amine] were below 10%, above 90% and 10 to 80%.
With `CC(Nc1ncnc2ccc(-c3cnc4cnccn34)cc12)c1ccccc1` (stereo not drawn) [Compound 139, 6-imidazo[1,2-a]pyrazin-3-yl-N-(1-phenylethyl)quinazolin-4-amine], the inhibition at 0.1 µM on PI3Ka was 10 to 80%; on EGFR, 10 to 80%; on DNA-PK, below 10%.
Regarding `OCC(Nc1ncnc2ccc(-c3cnc4cnccn34)cc12)c1ccccc1` (stereo not drawn) [Compound 140, 2-[(6-imidazo[1,2-a]pyrazin-3-ylquinazolin-4-yl)amino]-2-phenyl-ethanol], the inhibition at 0.1 µM on PI3Ka is below 10%; on EGFR, 10 to 80%; at DNA-PK, below 10%.

The values above are taken from patent publication US11673876B2, “Substituted aminobenzyl heteroaryl compounds as EGFR and/or PI3K inhibitors” (Mekanistic Therapeutics LLC, priority 2020, dated 2023).
